ChEMBL document CHEMBL5674860, “Optimized Dual-Glo Assay to identify co-culture-induced drug vulnerabilities in 3D CRC models” (2024)

Columns and labels:
Format in all cases: functional, Homo sapiens
Design in all cases: dose or concentration left out as unconfirmed
Colon cancer organoid [1] = test: Optimized Dual-Glo assay to identify co-culture induced drug vulnerabilities using donated chemical probes and chemogenomics kinase set in O06 CRC organoid and F06 CAF mono and co-culture. […] Cell viability is reported both mono and co-culture models.
Colon cancer organoid [2] = test: Optimized Dual-Glo assay to identify co-culture induced drug vulnerabilities using donated chemical probes and chemogenomics kinase set in O14 CRC organoid and F14 CAF mono and co-culture. […] Cell viability is reported both mono and co-culture models.
Colon cancer organoid [3] = test: Optimized Dual-Glo assay to identify co-culture induced drug vulnerabilities using donated chemical probes and chemogenomics kinase set in O20 CRC organoid and F20 CAF mono and co-culture. […] Cell viability is reported both mono and co-culture models.
[4] = Culture type Co-Culture, Transduced with Lucferase2-P2A-EGFP lentivirus
[5] = Culture type Co-Culture, Transduced with Renilla-dsRed lentivirus
[6] = Culture type Mono-Culture, Transduced with Lucferase2-P2A-EGFP lentivirus
[7] = Culture type Mono-Culture, Transduced with Renilla-dsRed lentivirus

C[C@@H]1CCNC(=O)c2cc3ccc(C(=O)Nc4nc5ccccc5n4CCCN(C)C)cc3n21
Cell Viability (Colon cancer organoid [1]; [4]): 65.6776% | Cell Viability (Colon cancer organoid [1]; [5]): 63.6239% | Cell Viability (Colon cancer organoid [1]; [6]): 102.952% | Cell Viability (Colon cancer organoid [1]; [7]): 73.3213% | Cell Viability (Colon cancer organoid [2]; [4]): 91.1023% | Cell Viability (Colon cancer organoid [2]; [5]): 83.3009% | Cell Viability (Colon cancer organoid [2]; [6]): 101.537% | Cell Viability (Colon cancer organoid [2]; [7]): 86.0489% | Cell Viability (Colon cancer organoid [3]; [4]): 64.9365% | Cell Viability (Colon cancer organoid [3]; [5]): 147.158% | Cell Viability (Colon cancer organoid [3]; [6]): 51.9591% | Cell Viability (Colon cancer organoid [3]; [7]): 102.286%

CCNC(=O)c1cc2c(N3CCOC[C@@H]3C)ccnc2n1C
Cell Viability (Colon cancer organoid [1]; [4]): 128.018% | Cell Viability (Colon cancer organoid [1]; [5]): 156.16% | Cell Viability (Colon cancer organoid [1]; [6]): 122.983% | Cell Viability (Colon cancer organoid [1]; [7]): 98.196% | Cell Viability (Colon cancer organoid [2]; [4]): 83.5289% | Cell Viability (Colon cancer organoid [2]; [5]): 107.252% | Cell Viability (Colon cancer organoid [2]; [6]): 73.6623% | Cell Viability (Colon cancer organoid [2]; [7]): 93.9449% | Cell Viability (Colon cancer organoid [3]; [4]): 107.341% | Cell Viability (Colon cancer organoid [3]; [5]): 102.95% | Cell Viability (Colon cancer organoid [3]; [6]): 119.318% | Cell Viability (Colon cancer organoid [3]; [7]): 105.417%

COc1cc(OC)cc(-c2noc(N3CCN(C)C4(CCN(c5ccnc(C)c5)CC4)C3)n2)c1
Cell Viability (Colon cancer organoid [1]; [4]): 121.179% | Cell Viability (Colon cancer organoid [1]; [5]): 136.172% | Cell Viability (Colon cancer organoid [1]; [6]): 96.7414% | Cell Viability (Colon cancer organoid [1]; [7]): 97.7605% | Cell Viability (Colon cancer organoid [2]; [4]): 84.0267% | Cell Viability (Colon cancer organoid [2]; [5]): 119.648% | Cell Viability (Colon cancer organoid [2]; [6]): 90.6911% | Cell Viability (Colon cancer organoid [2]; [7]): 98.8129% | Cell Viability (Colon cancer organoid [3]; [4]): 136.007% | Cell Viability (Colon cancer organoid [3]; [5]): 146.282% | Cell Viability (Colon cancer organoid [3]; [6]): 103.16% | Cell Viability (Colon cancer organoid [3]; [7]): 78.5515%

CCOc1ccn(-c2ccc(F)cc2)c(=O)c1C(=O)Nc1ccc(Oc2ccnc(N)c2Cl)c(F)c1 [BMS-777607]
Cell Viability (Colon cancer organoid [1]; [4]): 91.8113% | Cell Viability (Colon cancer organoid [1]; [5]): 94.0587% | Cell Viability (Colon cancer organoid [1]; [6]): 160.363% | Cell Viability (Colon cancer organoid [1]; [7]): 101.253% | Cell Viability (Colon cancer organoid [2]; [4]): 80.1334% | Cell Viability (Colon cancer organoid [2]; [5]): 87.7624% | Cell Viability (Colon cancer organoid [2]; [6]): 119.97% | Cell Viability (Colon cancer organoid [2]; [7]): 83.2963% | Cell Viability (Colon cancer organoid [3]; [4]): 100.473% | Cell Viability (Colon cancer organoid [3]; [5]): 72.8578% | Cell Viability (Colon cancer organoid [3]; [6]): 109.106% | Cell Viability (Colon cancer organoid [3]; [7]): 74.8704%

N#CC1(c2ccccn2)CCN(Cc2cc(C(=O)N3CCCC3)c(=O)n3ccccc23)CC1 [MSD-M1PAM-NC]
Cell Viability (Colon cancer organoid [1]; [4]): 85.4848% | Cell Viability (Colon cancer organoid [1]; [5]): 72.6928% | Cell Viability (Colon cancer organoid [1]; [6]): 94.7679% | Cell Viability (Colon cancer organoid [1]; [7]): 111.31% | Cell Viability (Colon cancer organoid [2]; [4]): 77.5991% | Cell Viability (Colon cancer organoid [2]; [5]): 103.607% | Cell Viability (Colon cancer organoid [2]; [6]): 89.6138% | Cell Viability (Colon cancer organoid [2]; [7]): 86.9553% | Cell Viability (Colon cancer organoid [3]; [4]): 102.191% | Cell Viability (Colon cancer organoid [3]; [5]): 109.338% | Cell Viability (Colon cancer organoid [3]; [6]): 89.1265% | Cell Viability (Colon cancer organoid [3]; [7]): 100.403%

Cn1c(C2(NC(=O)c3ccc4c(C5CCCC5)c(-c5ncc(Br)cn5)n(C)c4c3)CCC2)nc2ccc(/C=C/C(=O)O)cc21 [DELEOBUVIR]
Cell Viability (Colon cancer organoid [1]; [4]): 116.632% | Cell Viability (Colon cancer organoid [1]; [5]): 84.3073% | Cell Viability (Colon cancer organoid [1]; [6]): 123.499% | Cell Viability (Colon cancer organoid [1]; [7]): 101.583% | Cell Viability (Colon cancer organoid [2]; [4]): 94.147% | Cell Viability (Colon cancer organoid [2]; [5]): 102.969% | Cell Viability (Colon cancer organoid [2]; [6]): 81.1663% | Cell Viability (Colon cancer organoid [2]; [7]): 89.5103% | Cell Viability (Colon cancer organoid [3]; [4]): 79.9036% | Cell Viability (Colon cancer organoid [3]; [5]): 130.288% | Cell Viability (Colon cancer organoid [3]; [6]): 108.218% | Cell Viability (Colon cancer organoid [3]; [7]): 110.732%

Cc1c(Nc2ccc(S(=O)(=O)N3CCN(C)CC3)cc2F)nc2ccc(Nc3cnn(C4CC4)c3)cn2c1=O
Cell Viability (Colon cancer organoid [1]; [4]): 81.8172% | Cell Viability (Colon cancer organoid [1]; [5]): 120.859% | Cell Viability (Colon cancer organoid [1]; [6]): 129.193% | Cell Viability (Colon cancer organoid [1]; [7]): 116.74% | Cell Viability (Colon cancer organoid [2]; [4]): 111.5% | Cell Viability (Colon cancer organoid [2]; [5]): 108.059% | Cell Viability (Colon cancer organoid [2]; [6]): 92.684% | Cell Viability (Colon cancer organoid [2]; [7]): 101.792% | Cell Viability (Colon cancer organoid [3]; [4]): 117.664% | Cell Viability (Colon cancer organoid [3]; [5]): 135.679% | Cell Viability (Colon cancer organoid [3]; [6]): 121.681% | Cell Viability (Colon cancer organoid [3]; [7]): 97.2871%

CCC(=O)N1CCN(c2ccc(-n3c(=O)ccc4cnc5ccc(-c6cnc7ccccc7c6)cc5c43)cc2C(F)(F)F)CC1 [TORIN1]
Cell Viability (Colon cancer organoid [1]; [4]): 4.705% | Cell Viability (Colon cancer organoid [1]; [5]): 40.1911% | Cell Viability (Colon cancer organoid [1]; [6]): 4.406% | Cell Viability (Colon cancer organoid [1]; [7]): 17.8443% | Cell Viability (Colon cancer organoid [2]; [4]): 6.678% | Cell Viability (Colon cancer organoid [2]; [5]): 21.6908% | Cell Viability (Colon cancer organoid [2]; [6]): 9.433% | Cell Viability (Colon cancer organoid [2]; [7]): 15.03% | Cell Viability (Colon cancer organoid [3]; [4]): 7.384% | Cell Viability (Colon cancer organoid [3]; [5]): 44.8651% | Cell Viability (Colon cancer organoid [3]; [6]): 4.069% | Cell Viability (Colon cancer organoid [3]; [7]): 24.9993%

CCOC(=O)c1c(/C(C#N)=C\N)c2ccc(Cl)c(Cl)c2n1C
Cell Viability (Colon cancer organoid [1]; [4]): 122.99% | Cell Viability (Colon cancer organoid [1]; [5]): 97.4073% | Cell Viability (Colon cancer organoid [1]; [6]): 58.62% | Cell Viability (Colon cancer organoid [1]; [7]): 82.6208% | Cell Viability (Colon cancer organoid [2]; [4]): 135.947% | Cell Viability (Colon cancer organoid [2]; [5]): 65.0868% | Cell Viability (Colon cancer organoid [2]; [6]): 144.997% | Cell Viability (Colon cancer organoid [2]; [7]): 76.1592% | Cell Viability (Colon cancer organoid [3]; [4]): 92.1376% | Cell Viability (Colon cancer organoid [3]; [5]): 87.4636% | Cell Viability (Colon cancer organoid [3]; [6]): 163.638% | Cell Viability (Colon cancer organoid [3]; [7]): 89.5418%

O=C(Nc1cccnc1)c1cc(-c2ccnc(F)c2)ccc1OCc1ccccc1
Cell Viability (Colon cancer organoid [1]; [4]): 87.3368% | Cell Viability (Colon cancer organoid [1]; [5]): 83.1264% | Cell Viability (Colon cancer organoid [1]; [6]): 73.6273% | Cell Viability (Colon cancer organoid [1]; [7]): 99.0368% | Cell Viability (Colon cancer organoid [2]; [4]): 118.198% | Cell Viability (Colon cancer organoid [2]; [5]): 103.257% | Cell Viability (Colon cancer organoid [2]; [6]): 132.36% | Cell Viability (Colon cancer organoid [2]; [7]): 106.667% | Cell Viability (Colon cancer organoid [3]; [4]): 125.655% | Cell Viability (Colon cancer organoid [3]; [5]): 104.766% | Cell Viability (Colon cancer organoid [3]; [6]): 84.3573% | Cell Viability (Colon cancer organoid [3]; [7]): 88.986%

Cc1cc2c(-c3ccco3)cnc(N[C@H]3CCN(C)C[C@@H]3C(=O)NC3CCCCC3)c2[nH]c1=O [GSK791]
Cell Viability (Colon cancer organoid [1]; [4]): 113.813% | Cell Viability (Colon cancer organoid [1]; [5]): 153.556% | Cell Viability (Colon cancer organoid [1]; [6]): 183.923% | Cell Viability (Colon cancer organoid [1]; [7]): 92.8694% | Cell Viability (Colon cancer organoid [2]; [4]): 95.0265% | Cell Viability (Colon cancer organoid [2]; [5]): 100.863% | Cell Viability (Colon cancer organoid [2]; [6]): 120.55% | Cell Viability (Colon cancer organoid [2]; [7]): 112.529% | Cell Viability (Colon cancer organoid [3]; [4]): 101.755% | Cell Viability (Colon cancer organoid [3]; [5]): 116.18% | Cell Viability (Colon cancer organoid [3]; [6]): 85.6153% | Cell Viability (Colon cancer organoid [3]; [7]): 75.9377%

CC(=O)Nc1cccc(-n2c(=O)n(C3CC3)c(=O)c3c(Nc4ccc(I)cc4F)n(C)c(=O)c(C)c32)c1 [TRAMETINIB]
Cell Viability (Colon cancer organoid [1]; [4]): 4.434% | Cell Viability (Colon cancer organoid [1]; [5]): 57.2708% | Cell Viability (Colon cancer organoid [1]; [6]): 3.321% | Cell Viability (Colon cancer organoid [1]; [7]): 25.6485% | Cell Viability (Colon cancer organoid [2]; [4]): 1.363% | Cell Viability (Colon cancer organoid [2]; [5]): 9.093% | Cell Viability (Colon cancer organoid [2]; [6]): 1.0764% | Cell Viability (Colon cancer organoid [2]; [7]): 6.441% | Cell Viability (Colon cancer organoid [3]; [4]): 2.051% | Cell Viability (Colon cancer organoid [3]; [5]): 46.1337% | Cell Viability (Colon cancer organoid [3]; [6]): 3.859% | Cell Viability (Colon cancer organoid [3]; [7]): 28.7914%

COc1cc(Nc2nc(C)cc(-c3cnn4nc(OC)ccc34)n2)cc(C(F)(F)F)c1
Cell Viability (Colon cancer organoid [1]; [4]): 131.373% | Cell Viability (Colon cancer organoid [1]; [5]): 124.179% | Cell Viability (Colon cancer organoid [1]; [6]): 105.332% | Cell Viability (Colon cancer organoid [1]; [7]): 118.145% | Cell Viability (Colon cancer organoid [2]; [4]): 103.629% | Cell Viability (Colon cancer organoid [2]; [5]): 105.362% | Cell Viability (Colon cancer organoid [2]; [6]): 103.076% | Cell Viability (Colon cancer organoid [2]; [7]): 99.2277% | Cell Viability (Colon cancer organoid [3]; [4]): 136.021% | Cell Viability (Colon cancer organoid [3]; [5]): 99.6244% | Cell Viability (Colon cancer organoid [3]; [6]): 133.384% | Cell Viability (Colon cancer organoid [3]; [7]): 109.532%

Cc1ccc(C(=O)Nc2cccc(C(F)(F)F)c2)cc1Nc1nc(-c2cccnc2)nc2c1cnn2C
Cell Viability (Colon cancer organoid [1]; [4]): 60.2736% | Cell Viability (Colon cancer organoid [1]; [5]): 70.9034% | Cell Viability (Colon cancer organoid [1]; [6]): 100.972% | Cell Viability (Colon cancer organoid [1]; [7]): 83.1262% | Cell Viability (Colon cancer organoid [2]; [4]): 103.322% | Cell Viability (Colon cancer organoid [2]; [5]): 86.6207% | Cell Viability (Colon cancer organoid [2]; [6]): 91.8457% | Cell Viability (Colon cancer organoid [2]; [7]): 71.8424% | Cell Viability (Colon cancer organoid [3]; [4]): 141.672% | Cell Viability (Colon cancer organoid [3]; [5]): 123.917% | Cell Viability (Colon cancer organoid [3]; [6]): 68.1835% | Cell Viability (Colon cancer organoid [3]; [7]): 97.2478%
